Patent publication US20230348394A1, “COMPOSITIONS AND METHODS FOR TREATING MUSCULAR DYSTROPHIES” (The Regents of the University of California, priority 2020, published 2023)

Key:
[1] = system: alpha-dystroglycan (α-DG); experiment: Immunoblot of total protein lysates, C2C12 myotubes; assay type: cell-based, murine; details: 5 μM, 48 hours
Method: Myotubes treated for 48 hrs were lysed using RIPA buffer (Thermo Fisher Scientific) containing Halt Protease Inhibitor Cocktail (Thermo Fisher Scientific). Cell lysates in RIPA buffer were rocked for 1 hr at 4° C. and centrifuged at 1,000 RPM for 30 mins at 4° C. The supernatant was collected, quantified for protein concentration using the DC protein assay (Bio-Rad), and normalized to 2 mg/ml in water and Laemmli sample buffer with a final concentration of 10% glycerol (Sigma-Aldrich), 5% beta-mercaptoethanol (Sigma-Aldrich), 3% sodium dodecyl sulfate (Sigma-Aldrich), and 0.05% bromophenol blue (Sigma-Aldrich). For SDS-PAGE, samples were heated to 95° C. for 2 mins before loading 40 μg onto 4-12% tris-glycine or bis-tris polyacrylamide gels (Novex), electrophoresed for 2 hrs at 100 volts at RT, and transferred to a nitrocellulose membrane for 2 hrs at 100 volts at 4° C. Ponceau S staining was performed to visualize protein loading and verify protein transfer. […] Autoradiography films were developed using a SRX-101A tabletop processor (Konica Minolta), scanned to a digital file, and analyzed by densitometry of bands using ImageJ version 1.51 s. […]

[2] = Half-life analysis in CD-1 mouse plasma; assay type: in vitro ADME, CD-1 mice; details: 37° C.
Method: Half-life analysis was performed by Eurofins Panlabs Inc. using 1 μM of compound with a final DMSO concentration of 0.5%. PBS or plasma from CD-1 mice was pre-warmed to 37° C. for 5 mins before addition of the test compounds and continued incubation at 37° C. At 0, 30, 60, 120, 240, and 1440 mins an aliquot of solution containing compounds was mixed with acetonitrile/methanol, mixed, and centrifuged. The supernatants were used for HPLC-MS/MS analysis.

half-life at 1 μM [2]: 7.7 h
SMILES: CCN(CC)c1ccc2cc(C(=O)Nc3ccc(C(=O)N4CCCCCC4)cc3)c(=O)oc2c1 [OT-9]
increase of core α-DG in total protein lysates [1]: 1.5 fold
levels of glycosylated α-DG in total protein lysates [1]: did not increase levels of glycosylated α-DG
